Earlier results, collected in US20210400960A1, “INSECT REPELLENT COMPOSITION” (Mother Earth Dermatics (MED) GMBH, priority 2018, published 2021).

System: insects
Conditions: depending on the concentration

## CCN(CC)C(=O)c1cccc(C)c1 [DEET, N,N-diethyl-m-toluamide]
  Duration of repellent effect: 6 to 8 h
